How the values were obtained:
[1] = molecular target: T1, Pyruvate dehydrogenase E1 component subunit alpha, somatic form, mitochondrial (Sus scrofa) (UniProt P29804); test: Binding affinity to porcine PDHc E1-subunit assessed as KM(TPP)/Ki ratio incubated for 30 mins followed by pyruvate addition by microplate reader analysis
T1 sequence (whole entry): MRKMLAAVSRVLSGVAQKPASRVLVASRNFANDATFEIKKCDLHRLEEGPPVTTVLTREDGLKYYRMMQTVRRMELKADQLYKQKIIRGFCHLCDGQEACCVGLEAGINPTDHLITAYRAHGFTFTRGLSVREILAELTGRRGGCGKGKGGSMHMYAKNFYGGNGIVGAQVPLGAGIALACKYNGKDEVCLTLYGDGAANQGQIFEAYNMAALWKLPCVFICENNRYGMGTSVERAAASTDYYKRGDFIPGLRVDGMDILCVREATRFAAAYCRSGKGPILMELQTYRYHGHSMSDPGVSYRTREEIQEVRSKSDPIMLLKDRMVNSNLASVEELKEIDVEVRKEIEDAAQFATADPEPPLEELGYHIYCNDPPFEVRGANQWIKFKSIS

[2] = molecular target: T2, Pyruvate dehydrogenase E1 component subunit alpha, somatic form, mitochondrial (Sus scrofa, UniProt P29804); test: Inhibition of porcine PDHc E1-subunit incubated for 30 mins followed by pyruvate addition in presence of thiamine pyrophosphate by microplate reader analysis
T2 sequence (P29804 whole entry): T1 sequence (whole entry)

[3] = molecular target: T2, Pyruvate dehydrogenase E1 component subunit alpha, somatic form, mitochondrial; test: Binding affinity to porcine PDHc E1-subunit assessed as inhibition constant incubated for 30 mins followed by pyruvate addition by microplate reader analysis
[4] = Permeability of the compound assessed as absorbed fraction by PAMPA assay; type: ADME
[5] = molecular target: T1, Pyruvate dehydrogenase E1 component subunit alpha, somatic form, mitochondrial (Sus scrofa); test: Inhibition of porcine PDHc E1-subunit at 10 uM at 1:5 compound: thiamine pyrophosphate ratio incubated for 30 mins followed by pyruvate addition by microplate reader analysis relative to control
[6] = molecular target: T1, Pyruvate dehydrogenase E1 component subunit alpha, somatic form, mitochondrial (Sus scrofa); test: Inhibition of porcine PDHc E1-subunit at 10 uM at 1:1 compound: thiamine pyrophosphate ratio incubated for 30 mins followed by pyruvate addition by microplate reader analysis relative to control
[7] = Metabolic stability of the compound assessed as porcine liver esterase mediated hydrolysis at pH 7.4 measured after 4 hrs by UPLC analysis; type: ADME, Sus scrofa; conditions: pig, isolated protein, pH 7.4, 4 h
[8] = Thermal stability of the compound assessed as compound remaining in DMSO at 70 degreeC incubated for 2 hrs by NMR analysis; type: physicochemical; conditions: read-out: Stability
[9] = Stability of the compound assessed as porcine liver esterase mediated compound degradation by measuring compound recovery at 0.05 mmol measured after 30 mins by NMR analysis; type: ADME, Sus scrofa; conditions: pig, read-out: Stability
[10] = Stability of the compound assessed as compound remaining in 1 M aqueous NaOH at 37 degreeC incubated for 2 hrs by NMR analysis; type: physicochemical; conditions: read-out: Stability
[11] = Stability of the compound assessed as compound remaining in 0.1M aqueous phosphate buffer at pH 7.4 incubated for 2 hrs by NMR analysis; type: physicochemical; conditions: read-out: Stability
[12] = Stability of the compound assessed as compound remaining in 1 M aqueous HCl at 37 degreeC incubated for 2 hrs by NMR analysis; type: physicochemical; conditions: read-out: Stability
[13] = Stability of the compound assessed as compound remaining in 0.1 M aqueous K2CO3 incubated for 1 hr by NMR analysis; type: physicochemical; conditions: read-out: Stability
[14] = Drug metabolism in porcine liver esterase assessed as 2-(4-((4-amino-2-methylpyrimidin-5-yl)methyl)-3-methylthiophen-2-yl)ethan-1-ol formation at pH 7.4 measured after 4 hrs; type: ADME, Sus scrofa; conditions: pig, pH 7.4, 4 h

SMILES	Ratio [1]	IC50 [2]	Ki [3]	permeability [4]	inhibition [5]	inhibition [6]	further results
Cc1ncc(CN2CS[C@H](CCO)[C@@H]2C)c(N)n1 (racemic)	0.48	21000 nM	105 nM				
COc1ccc(C(=O)OCCc2cn(Cc3cnc(C)nc3N)nn2)cc1	1.59	6300 nM	31.5 nM	31%	25%	63%	
COc1ccc(C(=O)NCCc2scc(Cc3cnc(C)nc3N)c2C)cc1	1.96	5100 nM	25.5 nM	35%	28%	65%	Stability [7]: Stable
Cc1ncc(Cc2coc(CCNC(=O)c3ccc(Cl)cc3)c2)c(N)n1		9200 nM					
COc1ccc(C2(NCCc3scc(Cc4cnc(C)nc4N)c3C)COC2)cc1	10.1	990 nM	4.95 nM	44%	65%	> 90%	remaining at 2 h [8]: > 90%; remaining at 0.5 h [9]: > 90%; remaining at 2 h [10]: > 90%; Stability [7]: Stable; remaining at 2 h [11]: > 90%; remaining at 2 h [12]: 22%; remaining at 1 h [13]: > 90%
COc1ccc(C2(NCCc3cn(Cc4cnc(C)nc4N)nn3)COC2)cc1	1.28	7800 nM	39 nM	35%	20%	58%	
COc1ccc(C(=O)OCC[C@H]2SCN(Cc3cnc(C)nc3N)[C@H]2C)cc1 (racemic)	2.86	3500 nM	17.5 nM				
Cc1ncc(Cn2cc(CCOC(=O)c3cccnc3)nn2)c(N)n1		3000 nM					
Cc1ncc(Cn2cc(CCO)nn2)c(N)n1		30000 nM	150 nM				
Cc1ncc(Cc2coc(CCOC(=O)c3ccc(Cl)cc3)c2)c(N)n1		3300 nM					
COc1ccc(C(=O)NCCc2cn(Cc3cnc(C)nc3N)nn2)cc1	0.29	35000 nM	175 nM	26%	< 10%	22%	
Cc1ncc(Cc2csc(CCO)c2C)c(N)n1 [3-DEAZATHIAMINE]	2.78	3600 nM	18 nM				
Cc1ncc(Cc2coc(CCNC(=O)c3cccnc3)c2)c(N)n1		2500 nM					
Cc1ncc(Cn2cc(CCNC(=O)c3ccc(Cl)cc3)nn2)c(N)n1		66000 nM					
COc1ccc(C(=O)OCCc2scc(Cc3cnc(C)nc3N)c2C)cc1	11.2	890 nM	4.45 nM	39%	72%	> 90%	remaining at 2 h [8]: > 90%; Drug metabolism [14]: Metabolite_Detected; remaining at 0.5 h [9]: < 10%; remaining at 2 h [10]: 15%; Stability [7]: Unstable; remaining at 2 h [11]: > 90%; remaining at 2 h [12]: 43%; remaining at 1 h [13]: 31%

— ChEMBL document CHEMBL5356955, “Thiamine analogues featuring amino-oxetanes as potent and selective inhibitors of pyruvate dehydrogenase” (Bioorg Med Chem Lett, 2024)
